Several values for one entry are separate records, joined by “and”; a condition that tells them apart may be missing. Equal entries are not always repeated.
Settings: Liquid, Transpiration method

CCCCCCCN [1-heptanamine]
Settings | vapor or sublimation pressure [kPa]
280.2 K | 0.07823
282.2 K | 0.09451
284.2 K | 0.1088
286.2 K | 0.1232
288.2 K | 0.1408
290.2 K | 0.1641
292.2 K | 0.1907
294.2 K | 0.2219
296.2 K | 0.2488
298.3 K | 0.2885
300.3 K | 0.3288
302.2 K | 0.38
303.2 K | 0.4098
306.2 K | 0.5027

NCc1ccccc1 [benzylamine]
Settings | vapor or sublimation pressure
275.5 K | 0.01437 kPa
276.7 K | 0.01472 kPa and 0.01525 kPa
278.6 K | 0.01828 kPa
279.6 K | 0.01912 kPa and 0.02004 kPa
281.5 K | 0.02307 kPa
282.3 K | 0.02534 kPa and 0.02615 kPa
284.5 K | 0.03135 kPa
285.7 K | 0.03458 kPa and 0.03341 kPa
287.6 K | 0.03874 kPa
288 K | 0.03934 kPa
290.5 K | 0.04695 kPa
291.6 K | 0.05362 kPa
293.5 K | 0.06098 kPa
294.2 K | 0.06487 kPa
296.5 K | 0.07884 kPa
297.7 K | 0.08247 kPa
298.4 K | 0.0869 kPa
300.3 K | 0.1015 kPa
301.3 K | 0.1137 kPa
303.3 K | 0.1283 kPa
303.4 K | 0.1277 kPa and 0.1263 kPa
303.5 K | 0.126 kPa
304.3 K | 0.1363 kPa
306.1 K | 0.1469 kPa
306.3 K | 0.1514 kPa
307.4 K | 0.1693 kPa
308.3 K | 0.1781 kPa
308.4 K | 0.1767 kPa
309.4 K | 0.1871 kPa
309.5 K | 0.1951 kPa
310.3 K | 0.2082 kPa
312.2 K | 0.2284 kPa
312.3 K | 0.2272 kPa and 0.2339 kPa
313.4 K | 0.2491 kPa
315.6 K | 0.3016 kPa

CCCCCCCCCCN [1-decanamine]
Settings | vapor or sublimation pressure
299.1 K | 0.013 kPa
300.2 K | 0.014 kPa
301.3 K | 0.0158 kPa
304 K | 0.0195 kPa
306.2 K | 0.0228 kPa
307.3 K | 0.0262 kPa
308.6 K | 0.0291 kPa
310.2 K | 0.0321 kPa
312.2 K | 0.036 kPa
313.2 K | 0.0426 kPa
315.1 K | 0.046 kPa
316.2 K | 0.0512 kPa
317.2 K | 0.0553 kPa
320 K | 0.0655 kPa
320.9 K | 0.0722 kPa
323.2 K | 0.0805 kPa
324.3 K | 0.0911 kPa and 0.0914 kPa
327.2 K | 0.106 kPa
330.1 K | 0.135 kPa and 0.1356 kPa
332.8 K | 0.1661 kPa and 0.1645 kPa
333.1 K | 0.1628 kPa and 0.1635 kPa
335.9 K | 0.1979 kPa and 0.2119 kPa
338.9 K | 0.2519 kPa and 0.2628 kPa
341.9 K | 0.3064 kPa and 0.3025 kPa
343 K | 0.3357 kPa

NCCc1ccccc1 [2-phenylethylamine]
Settings | vapor or sublimation pressure
285.2 K | 0.01545 kPa
287.4 K | 0.01817 kPa
288.2 K | 0.01989 kPa and 0.01942 kPa
290.1 K | 0.02316 kPa
293.1 K | 0.02888 kPa
293.2 K | 0.03129 kPa
298.2 K | 0.04648 kPa and 0.04334 kPa
298.3 K | 0.0443 kPa
300.1 K | 0.05196 kPa
302 K | 0.06007 kPa
303.2 K | 0.06532 kPa
303.3 K | 0.06414 kPa and 0.06328 kPa
304.2 K | 0.06955 kPa
305.1 K | 0.07177 kPa and 0.0755 kPa
306.4 K | 0.08176 kPa
308.2 K | 0.09258 kPa and 0.0878 kPa
310.4 K | 0.1067 kPa
311.2 K | 0.1201 kPa
313.2 K | 0.1331 kPa
313.4 K | 0.1311 kPa
314.2 K | 0.1374 kPa
317.2 K | 0.1818 kPa
318.2 K | 0.1891 kPa
318.4 K | 0.1878 kPa
320.2 K | 0.2187 kPa
323.2 K | 0.2655 kPa

CCCCCCCCN [1-octanamine]
Settings | vapor or sublimation pressure
274.2 K | 0.0157 kPa
277.7 K | 0.0208 kPa
281 K | 0.0274 kPa
283.2 K | 0.0325 kPa
283.6 K | 0.0347 kPa
285.9 K | 0.0428 kPa
286.5 K | 0.0428 kPa
289.2 K | 0.0517 kPa
289.6 K | 0.0545 kPa
292.4 K | 0.069 kPa and 0.0677 kPa
295.2 K | 0.084 kPa
295.3 K | 0.0856 kPa and 0.0834 kPa
298.1 K | 0.1047 kPa
298.5 K | 0.1064 kPa
301.1 K | 0.1353 kPa
301.2 K | 0.1294 kPa and 0.1369 kPa and 0.1341 kPa
301.3 K | 0.1312 kPa and 0.1328 kPa
304 K | 0.1653 kPa
304.1 K | 0.1667 kPa
307.1 K | 0.2113 kPa
307.3 K | 0.2102 kPa
310.2 K | 0.2494 kPa
310.3 K | 0.2578 kPa
312.3 K | 0.3051 kPa
313 K | 0.3121 kPa
313.3 K | 0.3238 kPa

CC(N)c1ccccc1 (configuration not stated) [1-phenylethanamine]
Settings | vapor or sublimation pressure
283.6 K | 0.02509 kPa
287.8 K | 0.03534 kPa
291.3 K | 0.04928 kPa and 0.04951 kPa
295.3 K | 0.06595 kPa
299.2 K | 0.08866 kPa
303.1 K | 0.1183 kPa
307.1 K | 0.1552 kPa
311 K | 0.2024 kPa
314.9 K | 0.2602 kPa
318.9 K | 0.3391 kPa
322.8 K | 0.4391 kPa
